{"source": "patent US20220401414A1", "about": "“TREATMENT AND PREVENTION OF A NEURODEGENERATIVE DISORDER” (Inflazome Limited, priority 2019, published 2022)", "test": "Study A: blood-brain barrier penetration, striatal MetaQuant microdialysis in healthy mice after oral dosing", "format": "in vivo, C57B1/6 mice", "settings": "for average peak levels in left and right striatal dialysate: MetaQuant dialysate, not corrected for recovery; for time of average peak levels after compound administration: striatal dialysate", "method": "The present study was designed to determine the free concentration of the compound of formula (I) in the left and right striatum of freely-moving adult male mice after oral administration.\nAdult male C57B1/6 mice (22-28 g; Envigo, the Netherlands) were used for the experiments. Following arrival, animals were housed in groups of 5 in polypropylene cages (40×50×20 cm) with wire mesh top in a temperature (22±2° C.) and humidity (55±15%) controlled environment on a 12 hour light cycle (07.00-19.00). Following surgery, animals were housed individually (cages 30×30×40 cm). Standard diet (SDS Diets, RM1 PL) and domestic quality mains water were available ad libitum.\nMice were anesthetized using isoflurane (2% and 500 mL/min O2). Before surgery, Finadyne (1 mg/kg, s.c.) was administered for analgesia during surgery and the post-surgical recovery period. A mixture of bupivacaine and epinephrine was used for local analgesia of the incision site.\nThe animals were placed in a stereotaxic frame (Kopf instruments, USA). MetaQuant microdialysis probes with a 3 mm exposed polyacrylonitrile membrane (MQ-PAN 33) were implanted bilaterally into the left and right striatum (coordinates for the tip of the probe: AP=+0.8 mm (to bregma), ML=+/−1.7 mm (to midline), DV=−4.0 mm (to dura) with an angle of 0° and the incisor bar set at 0.0 mm. All coordinates were based on “The mouse brain in stereotaxic coordinates” by Paxinos and Franklin (2008). The probes were attached to the skull with a stainless-steel screw and dental cement.\nThe monosodium salt of the compound of formula (I) was formulated in sterilized tap water at concentrations (with respect to the non-salt form) of 0.2 and 4 mg/mL for oral dosing at 5 mL/kg; 1 mg/kg and 20 mg/kg, respectively.\nThe MetaQuant microdialysis probes were connected with flexible PEEK tubing (Western Analytical Products Inc. USA; PK005-020) to a microperfusion pump (Harvard) and perfused with a slow flow of artificial CSF (perfusate), containing 147 mM NaCl, 3.0 mM KCl, 1.2 mM CaCl2, and 1.2 mM MgCl2, at a flow rate of 0.12 μL/min and a carrier flow of UP+0.02 M FA+0.04% ascorbic acid at o.8 μL/min. After a minimum of two hours of prestabilisation, microdialysis samples were collected in 60 minute intervals. Following collection of two baseline samples, the compound of formula (I) (1 or 20 mg/kg in sterilised tap water) was administered orally at t=0 minutes. Samples were collected into mini-vials (Microbiotech/se AB, Sweden; 4001029) using an automated fraction collector (UV 8301501, TSE, Univentor, Malta). At the end of the experiment, the animals were sacrificed.\nMicrodialysate samples from MetaQuant probes contained a nominal volume of 55.2 μL dialysate. Levels of the compound of formula (I) in MetaQuant microdialysate samples were quantified by LC-MS/MS.\nThe dialysate samples were mixed with acetonitrile and an aliquot of this mixture was injected into the LC system by an automated sample injector (SIL-20AD, Shimadzu, Japan). Calibrators and in-run QC samples were prepared in analytical dialysate of the same composition as the microdialysate samples. […]\nSuitable in-run calibration curves were fitted using weighted (1/x) regression and the sample concentrations were determined using these calibration curves. […]"}
{"smiles": "CC(C)n1ccc(S(=O)(=O)NC(=O)Nc2c3c(cc4c2CCC4)CCC3)n1", "note": "[compound of formula (I)]", "values": [{"measurement": "average peak levels in left and right striatal dialysate", "setting": "1 mg/kg oral (monosodium salt in sterilised tap water)", "value": "12 to 13", "unit": "nM"}, {"measurement": "time of average peak levels after compound administration", "setting": "1 mg/kg oral", "value": 5, "unit": "h"}, {"measurement": "average peak levels in left and right striatal dialysate", "setting": "20 mg/kg oral (monosodium salt in sterilised tap water)", "value": "201 to 243", "unit": "nM"}, {"measurement": "time of average peak levels after compound administration", "setting": "20 mg/kg oral", "value": 6, "unit": "h"}, {"measurement": "blood-brain barrier penetration", "setting": "oral administration", "value": "cross the blood-brain barrier following oral administration"}]}
